Experimental findings from paper PMC2782732 (ACS chemical biology, 2008) are described below.

For this assay, the target named is dengue E protein (Dengue virus type 2, UniProt P12823). Format: binding. The note with it: BOG plus dengue E protein, on-resonance irradiation at −2 ppm.

As for `CCCCCCCCO[C@@H]1O[C@H](CO)[C@@H](O)[C@H](O)[C@H]1O` [BOG, N-octyl-β-D-glucoside], the “STD NMR signal of ligand with E protein” value was “strong signals”.
